Columns and labels:
[1] = tested on: naïve T cells; assay: Cytoskeleton rearrangement (actin polymerization), naïve T cells; assay type: cell-based, mice; settings: naïve T cells pre-treated with CCL2 0.1 ng/ml, 15 seconds stimulation
Protocol: Cytoskeleton rearrangement—T cells were pre-incubated for 30 minutes in the presence or absence of CCL2 (0.1 ng/ml), and then stimulated with either CXCL12 (0.1 mg/ml PeproTech, Inc., Rocky Hill N.J.), SLC (CCL21, 0.4 mg/ml, PeproTech, Inc., Rocky Hill, N.J.), Rantes (0.1 mg/ml, R&D systems Minneapolis, Minn.), MIP-1β(0.1 mg/ml, R&D systems Minneapolis, Minn.) or Eotoxin (0.1 mg/ml R&D systems Minneapolis, Minn.) for 15 seconds. Cells were then immediately fixed with paraformaldehyde, permeabilized and their intracellular F-actin was stained with FITC-phalloidin (Sigma-Aldrich, St. Louis, Mo.), and then analyzed by flow cytometry to determine the state of their cytoskeleton, as previously described [Flaishon, L. F., et al., J. Biol. Chem. 276:46701 (2001)].

[2] = tested on: ERK½; assay: ERK detection (phospho-ERK western blot) in naïve T cells; assay type: cell-based, mice; settings: naïve T cells pre-treated with CCL2 30 minutes, CCL21 for 30 or 60 seconds; FIG. 3
Protocol: Stimulation of T cells—Cell stimulation was performed as previously described [Flaishon et al., J Biol Chem. (2001) 276:46701-46706]. Briefly, 1×10^7 T cells were suspended in 1 ml DMEM cell medium containing 10% (v/v) Fetal Calf Serum (FCS). Next, 0.1 ng/ml CCL2 (CytoLab) was added to each tube and the tubes were immediately placed in 37° C. for 30 minutes. Immediately after stimulation, cells were washed and handled as described hereinbelow.
Preparation of cell extract—Stimulated cells were lysed in lysis buffer containing: 25 mM Tris, pH 7.4; 2 mM Vanadate; 75 mM glycophosphate, pH 7.2; 2 mM EDTA; 2 mM EGTA; 10 mM NaPPi; and 0.5% NP-40, in the presence of the following protease inhibitors: 10 mg/ml Leupeptin; 10 mg/ml aprotinin; 10 mg/ml pepstatin; 10 mg/ml chymostatin (Roche); 1 mM PMSF (Sigma); and 20 mM N-etheyl-melamide (Sigma).
ERK detection—Cell lysates were separated on a 10% (wt/vol) SDS-PAGE. Proteins were electro-transferred to nitrocellulose membranes and reacted with anti-phospho-specific extracellular signal-regulated kinase (ERK) 1 or 2 (a kind gift from Dr Rony Seger, Weizmann Institute, Rehovot, Israel) followed by peroxidase-labeled goat anti-mouse (Jackson Labs), or reacted with polyclonal anti-Tubulin (Santa Cruz) followed by peroxidase anti-rabbit (Jackson Labs).

[3] = OVA sensitization and challenge mouse asthma model; assay type: in vivo, BALB/c mice; settings: OVA-challenged mice
Protocol: Ovalbumin (OVA) sensitization, challenge and treatment with CCL2—OVA sensitization and challenge were effected following a previously described protocol [Flaishon, L., et al., J. Immunol: Cutting edge 168: 3707 (2002)], BALB/c mice (average: 9 mice/group) were sensitized for OVA by intraperitoneal injections with 100 μg of chicken egg ovalbumin (OVA; Sigma-Aldrich, St. Louis, Mo.) mixed with 2 mg of aluminum hydroxide (Pierce, Rockford, Ill.) in 300 μl PBS (control group mice were injected with PSB alone). Injections were given on day 0, 7, and 14. 15 days after initial sensitization, and following, animals were challenged daily for 5 days (days 15-19) by inhaling 4% OVA in PBS, administered by an ultrasonic nebulizer (DeVilbiss, Somersel, Pa.) for 20 minutes, while the control group was challenged with PBS alone.
One of the groups injected and challenged by OVA was additionally injected i.p. with 300 μl PBS from the first day of OVA inhalation (day 15), for 5 days 20 minutes before each inhalation, and another group was additionally injected with murine CCL2 (60 ng CCL2 per animal per day). PBS-treated control group was PBS challenged and PBS injected. On day 18, 2 hours following inhalation, mice were anesthetized by an i.p. injection of 0.2 ml Ketamine/xylazine, and airway hyper-responsiveness (AHR) was determined by calculating the enhanced respiratory pause (Penh), a function of the ratio of peak expiratory flow to peak inspiratory flow and a function of the timing of expiration, measured in a plethysmographic box during expiration. Delta Penh was calculated by subtracting control Penh measurements, before antigen challenge, from the Penh measurements after antigen challenge. […] On day 19 the mice were sacrificed 2 hours after the last inhalation.
Lung histology—Lungs from mice participating in the OVA sensitization and challenge assay were inflated with 1 ml of 10% formalin until distended. Samples for paraffin sectioning were immersed in 10% formalin and fixed for 48 hours. The tissues were then embedded in paraffin and 2-3 micrometer sections were prepared. […]

[4] = TNBS colitis mouse model; assay type: in vivo, mice; settings: for Diarrhea (# of mice): 8 mice; for Colitis score: Wallace score 0 to 16
Protocol: TNBS colitis model and treatment with CCL2—TNBS colitis was induced as previously described [Ohkawara et al. (2002) Gastroenterology, 123:256]. Briefly, mice were anesthetized by i.p. injection (35 μl per mouse) of a mixture containing 85% ketamine and 15% xylazine (20 mg/ml). Next, 100 μl of TNBS [55% volume of 50% ethanol mixed with 45% volume of TNBS solution ([…]; Sigma-Aldrich)] was infused into the colonic lumen (about 3.5 cm of the anal verge) via 1 ml syringe attached to a feeding needle. Treated mice were weighted daily and visually inspected for clinical symptoms, such as rectal bleeding and diarrhea.
TNBS mice were divided into 6 groups. CCL2 groups (10 mice in each group) were injected i.p. daily with different CCL2 concentrations (30 ng, 60 ng or 180 ng) in 200 μl of PBS from day 0 (immediately after TNBS induction) to day 6. Control groups (10 mice in each group) were injected i.p. daily with 200 μl PBS alone. Additionally, 5 mice were injected i.p. daily with dexamethasone; and 1 mouse which was not treated and served as negative control for future histology and weight.
Macroscopic and histological assessment of colitis—An observer blind to the experimental procedure scored colitis for clinical manifestation of disease. The colon was macroscopically examined (×5 magnification) to evaluate the macroscopic lesions according to the Wallace criteria. The Wallace score ranks macroscopic colon lesions on a scale from 0 to 16 based on criteria reflecting inflammation, such as hyperemia, thickening of the bowel and the extent of ulceration. The colon was cut lengthwise and fixed in 4% paraformaldehyde for future histology.

[5] = CCL2 30 ng i.p. daily day 0 to day 6
[6] = CCL2 60 ng i.p. daily day 0 to day 6
[7] = CCL2 180 ng i.p. daily day 0 to day 6

CCL2: mammalian (e.g., human) CCL2 protein, GenBank NM_002982 / NP_002973; murine CCL2 used in the asthma model
inhibition of CXCL12-induced actin polymerization ([1]; FIG. 2c): 40-50% | inhibition of CCL21-induced actin polymerization ([1]; FIG. 2d): 40-50% | CCL21-induced phosphorylation of ERK½ [2]: inhibited | peribronchial and perivascular inflammatory infiltrate (inflammatory score 1-4) ([3]; CCL2 60 ng per day i.p., FIG. 8e): significantly reduced | histological changes in the lungs ([3]; CCL2 60 ng per day i.p., FIG. 8d): barely detectable | airway responsiveness (delta Penh) to antigen challenge ([3]; murine CCL2 60 ng per animal per day i.p. for 5 days, FIG. 8a): no airway hyperactivity was observed | Colon length (cm) [4, 5]: 6.25 ± 0.65 cm | Diarrhea (# of mice) [4, 5]: 4 # of mice | Colitis score [4, 5]: 10.875 ± 4.29 | Colon length (cm) [4, 6]: 7.88 ± 0.35 cm | Diarrhea (# of mice) [4, 6]: 0 # of mice | Colitis score [4, 6]: 2.13 ± 1.89 | Colon length (cm) [4, 7]: 7.88 ± 0.58 cm | Diarrhea (# of mice) [4, 7]: 0 # of mice | Colitis score [4, 7]: 2.88 ± 1.89 | TNBS colitis disease severity (diarrhea, colon shortening) ([4]; mice, CCL2 i.p. daily day 0 to day 6, Table 2, FIG. 10): significantly inhibited the disease

Source: patent publication US7919077B2, “Pharmaceutical compositions comprising CCL2 and use of same for the treatment of inflammation” (Yeda Research and Development Co. Ltd., priority 2006, dated 2011)
